Measurements taken from US11826448B2, “Zinc-arginine-chloride complex” (Colgate-Palmolive Company, priority 2018, dated 2023).

Tested on: keratinocyte cell line (Hacat)
Assay: Wound healing efficacy: scratch assay on a keratinocyte monolayer culture
Type: cell-based
Procedure: Wound healing efficacy is determined by incubating a monolayer cell culture with ZBA.
Briefly, a keratinocyte cell line (Hacat) was cultured with full confluency in a 24 well plate. The cells are then scratched horizontally and vertically with a pipet tips to generate a wound. The cells are washed twice with 1 mL of PBS buffer, then full culture medium (supplemented with 10% FBS and 1% antibiotic) is added to the scratched cells. The ZBA solution obtained from Example 1 is diluted with full culture medium at a concentration of 5 ppm or 50 ppm. Culture wells are incubated at 37° C. at 5% CO2 for up to 72 hours with either the ZBA medium mixture or with medium alone. The area of the scratches is then compared by light microscopy at different time points up to 72 hrs.

[1] = ZBA solution diluted in full culture medium at 5 ppm or 50 ppm, 37° C., 5% CO2, up to 72 hours, light microscopy

Substance: [Zn(Arginine)2Cl]^+Cl^− [ZBA]
- cell migration into the scratch wound compared to medium alone [1]: greater cell migration
- cell proliferation compared to medium alone [1]: faster proliferation
- morphology of the cells adjacent to the wound (in the presence of ZBA, up to 72 hours): improved
